In publication PMC5859971 (Genes & Development, 2018):
“And” between values parts separate entries of the source, which are not always exact repeats. Equal values may be shown once. Read-outs that look alike come from different tables or passages of the source.

Key:
HCT116-PHF5A^R38C = experiment: CellTiter-Glo viability assay, HCT116-PHF5A^R38C; type: cell-based, human; settings: for GI50: Homo sapiens, 72 h, read-out: HCT116-PHF5A^R38C GI50
Experimental: (§1) To further validate the pose of the compound, we analyzed the activity of several related chemical probes using the SPA with the purified protein complex ([Teng et al. 2017]). The SPA is formatted as a competition assay in which the purified protein complex is captured on a bead containing scintillant, incubated with test compounds over a dose response, and then competed off with a fixed concentration of ^3H-Plad compound. IC50 curves are then measured from the resulting light emitted from the bead (Table 1; Supplemental Fig. S4). In addition, we tested the probes in viability assays in two engineered cell lines: HCT116-PHF5A^WT and the sensitization line HCT116-PHF5A^R38C (Table 1; Supplemental Fig. S5). This facilitates profiling of chemical probe activity in the PHF5A background (wild type and mutant). The relative expression levels were further confirmed by Western blot analysis (Supplemental Fig. S5).
(§2) Parental HCT116 cells were obtained from American Type Culture Collection and cultured in RPMI 1640 medium supplemented with 10% fetal bovine serum. PHF5A R38C was generated using the Agilent QuikChange II kit and was cloned into pLenti6.3/V5 as described ([Teng et al. 2017]). The verified clone was used for lentivirus production using X293T cells. Parental HCT116 cells were infected with virus and selected with blasticidin S at 10 µg mL^−1 for 1 wk. Engineered cell lines were subsequently maintained in the absence of antibiotic. Transgene expression was confirmed by Western blot analysis (Supplemental Fig. S4). For Western blot analysis, α-PHF5A rabbit polyclonal antibody (Protein Tech, 15554-1-AP) was used at 1:1000 dilution in LI-COR buffer, and anti-rabbit secondary antibody (LI-COR) was used at 1:5000 dilution. The Western blot was imaged using an Odyssey V3.0 imager (LI-COR). For CellTiter-Glo analysis of the wild-type and PHF5A^R38C cell lines, 500 cells were seeded in each well of a 384-well plate 1 d before compound addition. Dose response was measured in 11-point serial dilutions with a top dose of 10 µM. The percentage of DMSO was controlled throughout, and a DMSO-only control was included. Seventy-two hours after dosing, CellTiter-Glo reagent was added, incubated, and assayed on an EnVision multilabel reader (PerkinElmer). Luminescence values from each treatment were normalized to the average value of the respective DMSO control. The dose response curve plots were generated in GraphPad Prism, and GI50 values were calculated from nonlinear regression analysis. GI50 values for the wild-type and R38C mutant cell lines were plotted in Spotfire.

[1] = target: T1, wild-type mini-SF3b complex (4-protein SF3b complex) (Homo sapiens, UniProt O75533+Q7RTV0); experiment: Scintillation proximity assay (SPA) competition with 3H-labeled pladienolide probe; type: binding; settings: for activity after truncating the diene tail: assays of Table 1
T1 construct: SF3B1 was limited to the HEAT repeat domain from residues 454–1304 and cloned in-frame with an N-terminal Flag tag; Truncated SF3B1 and full-length SF3B3, PHF5A, and SF3B5 were synthesized; made in house; host or cells: SF21 insect cells (baculovirus, pFastBac1)
Experimental: as §1
Batch immobilization of the anti-Flag antibody (Sigma) to the anti-mouse PVT SPA scintillation beads (PerkinElmer) was prepared as follows. For every 1.5 mg of beads, 10 µg of antibody was prepared in 150 µL of PBS. The antibody–bead mixture was incubated for 30 min at room temperature and centrifuged at 18,000g for 5 min. One-hundred-fifty microliters of PBS was used to resuspend every 1.5 mg of antibody–bead mixture. The aforementioned mini-SF3b complex was tested for ^3H-labeled pladienolide probe binding ([Kotake et al. 2007]). One-hundred microliters of binding reactions was prepared with […] of bead slurry and 0 or 50 nM protein in buffer (20 mM HEPES at pH 8, 200 mM KCl, 5% glycerol). The mixture was incubated for 30 min, and varying concentrations of ^3H-labeled pladienolide probe were added. The mixture was incubated for 30 min, and luminescence signals were read using a MicroBeta2 plate counter (PerkinElmer). Compound competition studies were performed with the wild-type mini-SF3b complex. One-hundred microliters of binding reactions was prepared with 50 µL of bead slurry, 25 nM protein in buffer, and compounds at varying concentrations. After 30 min of preincubation, 10 nM ^3H-labeled pladienolide probe was added. The reactions were incubated for 30 min, and luminescence signals were read.
The Scintillation proximity assay (SPA) competition assay with 10 nM 3H tracer for different Pladienolide analogs binding to the 4-protein SF3b complex. Error bars represent STD for 2 or more measurements. Red = E7107, Orange = PladD, Purple = PladF, Green = compound 2, red = compound 3, gray = compound 4, black = compound 5, blue = compound 6. […]

HCT116-PHF5A^WT = experiment: CellTiter-Glo viability assay, HCT116-PHF5A^WT; type: cell-based, human; settings: for GI50: Homo sapiens, 72 h, read-out: HCT116-PHF5A^WT GI50
Experimental: as §1, §2

[2] = system: splicing of Ad2.1 pre-mRNA substrate; experiment: In vitro splicing (IVS) assay, Ad2.1 substrate, HeLa S3 nuclear extracts, RT-qPCR; type: biochemical, human; settings: Ad2.1 (strong) substrate
Excerpt: (§3) A substrate competitive mechanism of action (MOA) would predict that weaker pre-mRNA substrates would be easier to inhibit than stronger substrates. To date, it has not been possible to evaluate substrate competition using traditional steady-state conditions because splicing reactions are thought to be single-turnover events in vitro, and therefore it is not possible to measure a KM for the pre-mRNA. […] Specifically, we engineered the strong in vitro splicing substrate Ad2.1 by enhancing the U2 snRNP base-pairing around the BPA found in the Ad2 substrate. We then engineered a weaker substrate, Ad2.2, by adding a decoy BPS lacking an extrahelical adenosine (Ad2.2) (Fig. 5A; Supplemental Vector NTI files; [Corrionero et al. 2011]). […] We then evaluated E7107 and several chemical probes to better understand their mechanism.
(§4) Figure 5. […] (A) Base-pairing logic for IVS substrates. (BPRS) Branch point recognition sequence in U2 snRNA; (BPS) the BPS in the pre-mRNA. The Ad2 gene BPS sequence (UACUUAU) was modified (UACUAAU) to strengthen the U2 base-pairing interactions flanking the BPA, leading to the Ad2.1 substrate (BPA in red). The Ad2.2 sequence has the same BPS as Ad2 but also contains a 5′ decoy BPS sequence (lacking an extrahelical adenine) that can base-pair with the BPRS. The decoy BPS and suboptimal BPS overlap, which gives U2 at least two possibilities for possible base pairing, as indicated. […] (B) RT-qPCR time-course data showing product formation over time. […] (C) Representative IC50 curves for compound 6 using the two different substrates (Ad2.1 and Ad2.2).
(§5) The Ad2-derived ([Pellizzoni et al. 1998]) sequence was cloned into the pGEM-3Z vector (Promega) using 5′ EcoRI and 3′ XbaI restriction sites. The Ad2 variant (Ad2.2) ([Seiler et al. 2018]) was cloned into pcDNA3.1(+) vector (Promega) using the same restriction sites. The plasmids were linearized using XbaI and used as DNA templates in the in vitro transcription reactions. The FtzΔi intron-less plasmid ([Luo and Reed 1999]) was linearized using EcoRI. All RNAs were in vitro transcribed and then purified using MegaScript T7 and MegaClear kits, respectively (Invitrogen). For splicing reactions used with the Ad2.2 substrate, […] reactions were prepared using 8 µg of nuclear extracts prepared from HeLa S3, a saturating excess of 2 ng of pre-mRNA substrate, 0.2 ng of FTZΔi, and varying concentrations of compounds or DMSO.

[3] = system: splicing of Ad2.2 pre-mRNA substrate; experiment: In vitro splicing (IVS) assay, Ad2.2 substrate, HeLa S3 nuclear extracts, RT-qPCR; type: biochemical, human; settings: for IC50: Ad2.2 (weak) substrate; for inhibition of strong and weak IVS substrates: Ad2.1 and Ad2.2 substrates compared
Excerpt: as §3, §4, §5

[4] = system: HCT116 cell lines overexpressing PHF5A WT and mutants; experiment: Viability curves in HCT116 cell lines overexpressing PHF5A WT and mutants; type: cell-based, human
Experimental: Parental HCT116 cells were obtained from American Type Culture Collection and cultured in RPMI 1640 medium supplemented with 10% fetal bovine serum. […] Parental HCT116 cells were infected with virus and selected with blasticidin S at 10 µg mL^−1 for 1 wk. Engineered cell lines were subsequently maintained in the absence of antibiotic. Transgene expression was confirmed by Western blot analysis (Supplemental Fig. S4). For Western blot analysis, α-PHF5A rabbit polyclonal antibody (Protein Tech, 15554-1-AP) was used at 1:1000 dilution in LI-COR buffer, and anti-rabbit secondary antibody (LI-COR) was used at 1:5000 dilution. The Western blot was imaged using an Odyssey V3.0 imager (LI-COR). For CellTiter-Glo analysis of the wild-type and PHF5A^R38C cell lines, 500 cells were seeded in each well of a 384-well plate 1 d before compound addition. Dose response was measured in 11-point serial dilutions with a top dose of 10 µM. The percentage of DMSO was controlled throughout, and a DMSO-only control was included. Seventy-two hours after dosing, CellTiter-Glo reagent was added, incubated, and assayed on an EnVision multilabel reader (PerkinElmer). Luminescence values from each treatment were normalized to the average value of the respective DMSO control. The dose response curve plots were generated in GraphPad Prism, and GI50 values were calculated from nonlinear regression analysis. […]

[5] = competition with 10 nM 3H-labeled pladienolide probe, 25 nM protein, read-out: SPA IC50

T1 sequence (Q7RTV0 whole entry, the tested form may be a part): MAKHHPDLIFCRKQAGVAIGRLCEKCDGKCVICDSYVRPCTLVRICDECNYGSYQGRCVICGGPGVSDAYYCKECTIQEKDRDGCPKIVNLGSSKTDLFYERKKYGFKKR
T1 sequence (Q15393 whole entry, further chain, the tested form may be a part): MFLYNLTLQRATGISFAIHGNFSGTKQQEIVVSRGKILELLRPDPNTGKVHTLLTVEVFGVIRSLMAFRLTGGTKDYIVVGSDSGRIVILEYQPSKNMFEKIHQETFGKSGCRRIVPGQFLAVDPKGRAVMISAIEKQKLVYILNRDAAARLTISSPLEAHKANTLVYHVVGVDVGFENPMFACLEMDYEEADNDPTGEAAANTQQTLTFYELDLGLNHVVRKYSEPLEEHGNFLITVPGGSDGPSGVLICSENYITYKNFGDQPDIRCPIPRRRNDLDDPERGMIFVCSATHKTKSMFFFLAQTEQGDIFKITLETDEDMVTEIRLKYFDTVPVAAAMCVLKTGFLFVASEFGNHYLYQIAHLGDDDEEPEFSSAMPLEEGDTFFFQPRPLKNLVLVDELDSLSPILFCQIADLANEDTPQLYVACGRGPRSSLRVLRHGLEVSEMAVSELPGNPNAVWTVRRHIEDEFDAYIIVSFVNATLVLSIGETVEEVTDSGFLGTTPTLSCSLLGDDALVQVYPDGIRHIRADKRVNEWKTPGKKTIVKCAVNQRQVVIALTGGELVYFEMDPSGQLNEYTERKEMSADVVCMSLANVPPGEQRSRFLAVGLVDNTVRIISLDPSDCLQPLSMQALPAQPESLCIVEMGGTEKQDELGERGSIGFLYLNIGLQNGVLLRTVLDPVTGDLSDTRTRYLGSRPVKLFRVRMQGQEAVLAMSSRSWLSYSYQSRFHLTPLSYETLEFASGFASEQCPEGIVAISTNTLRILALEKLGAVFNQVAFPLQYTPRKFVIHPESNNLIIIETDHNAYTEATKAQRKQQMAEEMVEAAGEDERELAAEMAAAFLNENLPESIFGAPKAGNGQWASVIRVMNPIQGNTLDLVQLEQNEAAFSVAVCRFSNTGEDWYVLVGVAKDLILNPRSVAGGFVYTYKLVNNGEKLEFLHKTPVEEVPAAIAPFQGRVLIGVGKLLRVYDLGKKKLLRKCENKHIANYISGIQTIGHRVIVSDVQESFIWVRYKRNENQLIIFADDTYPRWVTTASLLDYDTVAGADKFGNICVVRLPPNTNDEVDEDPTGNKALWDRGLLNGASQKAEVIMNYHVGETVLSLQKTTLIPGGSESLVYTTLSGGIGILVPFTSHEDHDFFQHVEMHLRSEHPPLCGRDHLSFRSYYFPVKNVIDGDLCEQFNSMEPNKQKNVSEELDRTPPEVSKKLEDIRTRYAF
T1 sequence (O75533 454-1304): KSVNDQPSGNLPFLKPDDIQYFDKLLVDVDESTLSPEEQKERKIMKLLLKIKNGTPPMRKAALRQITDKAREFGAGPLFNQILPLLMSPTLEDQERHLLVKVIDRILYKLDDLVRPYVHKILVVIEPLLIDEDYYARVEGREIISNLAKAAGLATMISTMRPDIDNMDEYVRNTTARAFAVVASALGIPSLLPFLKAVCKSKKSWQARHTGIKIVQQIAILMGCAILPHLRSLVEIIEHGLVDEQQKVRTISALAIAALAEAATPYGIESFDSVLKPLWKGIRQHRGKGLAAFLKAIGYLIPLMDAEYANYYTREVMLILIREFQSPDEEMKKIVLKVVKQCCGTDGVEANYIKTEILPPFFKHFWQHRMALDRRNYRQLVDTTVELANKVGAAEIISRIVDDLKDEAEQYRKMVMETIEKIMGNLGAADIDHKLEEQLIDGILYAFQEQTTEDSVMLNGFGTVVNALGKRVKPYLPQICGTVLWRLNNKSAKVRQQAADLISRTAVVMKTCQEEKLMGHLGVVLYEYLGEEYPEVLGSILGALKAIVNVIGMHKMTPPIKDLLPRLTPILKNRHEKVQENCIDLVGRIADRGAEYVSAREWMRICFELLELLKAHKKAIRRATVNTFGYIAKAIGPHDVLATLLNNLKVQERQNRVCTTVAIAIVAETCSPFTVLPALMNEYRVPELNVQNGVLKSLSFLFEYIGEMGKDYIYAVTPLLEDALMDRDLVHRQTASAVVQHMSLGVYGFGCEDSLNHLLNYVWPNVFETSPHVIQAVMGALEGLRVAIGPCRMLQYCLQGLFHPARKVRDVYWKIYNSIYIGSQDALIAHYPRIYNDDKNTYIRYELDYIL
T1 sequence (Q9BWJ5 whole entry, further chain, the tested form may be a part): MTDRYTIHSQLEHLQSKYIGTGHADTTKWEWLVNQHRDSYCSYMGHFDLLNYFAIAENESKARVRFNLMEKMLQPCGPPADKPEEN

Molecule	GI50 (HCT116-PHF5A^R38C; CellTiter-Glo)	IC50 [1, 5]	GI50 (HCT116-PHF5A^WT; CellTiter-Glo)	IC50 [2]	IC50 [3]	PHF5A^R38C sensitization phenotype (words) (HCT116-PHF5A^R38C; R38C vs wild type)	other results
C/C(=C\CO)[C@H]1OC(=O)C[C@H](O)CC[C@@](C)(O)[C@@H](OC(=O)N2CCN(C3CCCCCC3)CC2)/C=C/[C@@H]1C [Compound 5]	> 400 nM	> 4000 nM	> 400 nM	> 25000 nM	16000 nM		activity after truncating the diene tail [1]: completely eliminates activity
CO[C@H]([C@@H](C)[C@H]1O[C@]1(C)C[C@H](C)/C=C/C=C(\C)[C@H]1O[C@@H](CC(=O)O)CC[C@@H]1C)[C@@H](C)O [herboxidiene]						not and did not exhibit this sensitization phenotype and lie near the line of unity	
CCC(O)C(C)C1OC1CC(C)(O)C=CC=C(C)C1OC(=O)CC(O)CCC(C)(O)C(OC(=O)N2CC[N+](Cc3ccccc3)(C3CCCCCC3)CC2)C=CC1C (centres unmarked) [Compound 2]		236 nM					GI50 (HCT116-PHF5A^R38C): 259 nM; GI50 (HCT116-PHF5A^WT): > 400 nM
C/C(=C\C=C\[C@@H](C)c1ccccn1)[C@H]1OC(=O)C[C@H](O)CC[C@@](C)(O)[C@@H](OC(=O)N2CCN(C3CCCCCC3)CC2)/C=C/[C@@H]1C [Compound 6]	11 nM	376 nM	34 nM	> 25000 nM	23 nM		loss of potency relative to E7107 in the SPA ([1]; relative to E7107): sixfold; loss of potency relative to E7107 in viability assays (HCT116-PHF5A^WT): ~10 fold; inhibition of strong and weak IVS substrates [3]: inhibit only the weak substrate
CCC(O)C(C)C1OC1CC(C)(O)C=CC=C(C)C1OC(=O)CC(O)CCC(C)(O)C(O)C=CC1C (centres unmarked) [Plad F]	> 400 nM	1500 nM	> 400 nM	> 25000 nM	171 nM		loss of potency relative to E7107 in the SPA ([1]; relative to E7107): 20 fold; loss of potency relative to E7107 in viability assays (HCT116-PHF5A^WT): > 200 fold; inhibition of strong and weak IVS substrates [3]: inhibit only the weak substrate
C/C(=C\C(=O)O)[C@H]1OC(=O)C[C@H](O)CC[C@@](C)(O)[C@@H](OC(=O)N2CCN(C3CCCCCC3)CC2)/C=C/[C@@H]1C [Compound 4]	> 400 nM	> 4000 nM	> 400 nM	> 25000 nM	> 25000 nM		activity after truncating the diene tail [1]: completely eliminates activity
CO[C@]1(C)C[C@@]2(CO2)[C@H](O)[C@@H](/C=C/C(C)=C/C[C@@H]2O[C@H](C)[C@H](NC(=O)/C=C\[C@H](C)OC(C)=O)C[C@@H]2C)O1 [spliceostatin]						did not exhibit this sensitization phenotype	PHF5A^R38C sensitization phenotype (words) (HCT116-PHF5A^R38C; R38C vs wild type, listed as Spliceostatin): lie near the line of unity
CCC(O)C(C)C1OC1CC(C)(O)C=CC=C(C)C1OC(=O)CC(O)CCC(C)(O)C(OC(C)=O)C=CC1C (centres unmarked) [Plad D]							PHF5A^R38C sensitization phenotype (words) (HCT116-PHF5A^R38C): did not observe this trend; GI50 (HCT116-PHF5A^R38C): 18 nM; IC50 [1]: 97 nM; activity in the SPA binding assay [1]: nearly equipotent to E7107; GI50 (HCT116-PHF5A^WT): 26 nM
CCC(O)C(C)C1OC1CC(C)(O)C=CC=C(C)C1OC(=O)CC(OC(=O)C2CC2)CCC(C)(O)C(OC(=O)N2CCN(C3CCCCCC3)CC2)C=CC1C (centres unmarked) [Compound 3]	243 nM	> 4000 nM	> 400 nM	> 25000 nM	966 nM		activity in the SPA binding assay ([1]; relative to E7107): total loss of activity
CC(C)C[C@H](NC(=O)[C@H](Cc1ccccc1)NC(=O)c1cnccn1)B(O)O [bortezomib]						lie near the line of unity	killing of cell lines irrespective of PHF5A mutation status [4]: kills all of the cell lines at the same concentration
CCC(O)C(C)C1OC1CC(C)(O)C=CC=C(C)C1OC(=O)CC(O)CCC(C)(O)C(OC(=O)N2CC[N+](C)(C3CCCCCC3)CC2)C=CC1C (centres unmarked) [Compound 1]	> 400 nM		> 400 nM	177 nM and 184 nM	184 nM and 177 nM		inhibition of strong and weak IVS substrates [3]: inhibit both the strong and weak substrates equally well
pladienolide B [PladB]						did not observe this trend	
